# Experiments:
# Albumin [1] = target: T1, Albumin (Mus musculus, UniProt P07724); assay: Binding affinity to mouse albumin
# Albumin [2] = target: T2, Albumin (Homo sapiens, UniProt P02768); assay: Binding affinity to human albumin
# [3] = Terminal half life in iv dosed mouse; type: ADME, organism-based; settings: in vivo, read-out: beta t1/2 (converted)
# Albumin [4] = target: T2, Albumin; assay: Binding affinity to human albumin assessed as dissociation constant
# Macaca fascicularis = organism: Macaca fascicularis; assay: Terminal half life in monkey; settings: cynomolgus monkey, in vivo; read-out: beta t1/2 (converted)
# Albumin [5] = target: T2, Albumin; assay: Binding affinity to human albumin assessed as dissociation constant by fluorescence polarization assay
# Albumin [6] = target: T2, Albumin; assay: Binding affinity to human albumin assessed as dissociation constant by ITC method
# Albumin [7] = target: T1, Albumin; assay: Binding affinity to mouse albumin assessed as dissociation constant by fluorescence polarization assay
# Albumin [8] = target: T2, Albumin; assay: Binding affinity to human serum albumin by fluorescence polarization assay
# T2 sequence (P02768 whole entry): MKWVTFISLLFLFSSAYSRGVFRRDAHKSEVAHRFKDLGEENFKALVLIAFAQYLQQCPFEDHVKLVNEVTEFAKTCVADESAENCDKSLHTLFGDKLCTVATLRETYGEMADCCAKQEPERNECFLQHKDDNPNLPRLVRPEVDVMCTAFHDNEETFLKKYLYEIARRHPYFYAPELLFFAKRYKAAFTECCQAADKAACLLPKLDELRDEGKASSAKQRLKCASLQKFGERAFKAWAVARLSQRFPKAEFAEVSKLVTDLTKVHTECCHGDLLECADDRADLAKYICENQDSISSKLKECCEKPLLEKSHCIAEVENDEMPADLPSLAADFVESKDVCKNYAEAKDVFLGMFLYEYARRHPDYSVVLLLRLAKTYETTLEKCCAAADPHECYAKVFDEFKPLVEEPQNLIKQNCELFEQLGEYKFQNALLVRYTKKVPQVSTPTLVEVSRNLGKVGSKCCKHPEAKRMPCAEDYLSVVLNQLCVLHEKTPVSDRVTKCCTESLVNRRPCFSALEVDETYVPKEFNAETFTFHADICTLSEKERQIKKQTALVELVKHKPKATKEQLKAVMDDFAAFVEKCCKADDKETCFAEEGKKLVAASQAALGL
# T1 sequence (P07724 whole entry): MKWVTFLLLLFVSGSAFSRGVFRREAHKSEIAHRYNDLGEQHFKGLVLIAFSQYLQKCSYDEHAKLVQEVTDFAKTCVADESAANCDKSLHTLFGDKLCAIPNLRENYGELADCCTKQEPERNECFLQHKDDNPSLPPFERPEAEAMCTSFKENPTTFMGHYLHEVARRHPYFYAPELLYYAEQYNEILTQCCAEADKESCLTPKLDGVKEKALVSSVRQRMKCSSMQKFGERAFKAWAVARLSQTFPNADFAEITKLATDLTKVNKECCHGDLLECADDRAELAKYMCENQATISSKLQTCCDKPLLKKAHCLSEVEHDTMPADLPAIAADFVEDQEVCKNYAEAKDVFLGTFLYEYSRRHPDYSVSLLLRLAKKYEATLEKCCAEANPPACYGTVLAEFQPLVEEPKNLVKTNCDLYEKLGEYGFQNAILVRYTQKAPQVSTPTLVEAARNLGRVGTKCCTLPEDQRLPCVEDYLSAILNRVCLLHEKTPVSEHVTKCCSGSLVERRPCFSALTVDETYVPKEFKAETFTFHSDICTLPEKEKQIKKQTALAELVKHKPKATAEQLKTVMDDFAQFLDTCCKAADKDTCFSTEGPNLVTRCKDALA
molecule,measurement,setting,value
O=C(CCCc1ccc(I)cc1)NCCCCC(NC(=O)c1ccc2c(c1)C(=O)OC21c2ccc(O)cc2Oc2cc(O)ccc21)C(=O)O (stereo not given),Kd,Albumin [1],3600 nM
same,Kd,Albumin [2],3200 nM
same,half-life,[3],16.6 h
Ac-WWEQDRDWDFDVFGGGTP-NH2,Kd,Albumin [4],15 nM
same,half-life,Macaca fascicularis,31.2 h
O=C(CCCc1ccc(I)cc1)NCCCC[C@@H](NC(=O)c1ccc(-c2c3ccc(=O)cc-3oc3cc(O)ccc23)c(C(=O)O)c1)C(=O)O,Kd,Albumin [5],108 nM
same,half-life,[3],8.25 h
same,Kd,Albumin [6],330 nM
same,Kd,Albumin [7],118 nM
Cc1cccc(OCc2cn(CCCC[C@@H]3NC(=O)CNC(=O)[C@@H]4CCCN4C(=O)[C@H](CCCCNC(=O)c4cnc(N5CCOCC5)c(N)c4)NC(=O)[C@H](CCCCNC(=S)Nc4ccc5c(c4)C(=O)OC54c5ccc(O)cc5Oc5cc(O)ccc54)NC(=O)[C@H](C)NC(=O)CNC(=O)[C@@H]4CCCN4C(=O)[C@H](CCCCNC(=O)c4cccc(Oc5ccccc5)c4)NC(=O)[C@H](C)NC3=O)nn2)n1,Kd,Albumin [8],6600 nM
